Reference: patent US12360118B2, “Method for protein kinase activity ranking” (KINOMICA LIMITED, priority 2015, dated 2025)

What was measured:
[1] = tested on: eight haematological cell-lines; assay: Viability of haematological cell-lines (Guava ViaCount) and sensitivity coefficient (SC); format: cell-based; settings: nine kinase inhibitors of Table 1
Method: B-cell lymphoma and leukemia cell-lines were routinely maintained in RPMI-1640 medium supplemented with 10% fetal-bovine serum (FBS) and 100 U·mL^−1 penicillin/streptomycin (P/S). Cells were maintained at a confluency of 0.5-2.0×10^6 cells·mL^−1. Stromal cells were grown in IMDM medium (supplemented with 10% FBS and 100 U·mL^−1 P/S) and maintained at a confluency of 2.0-30.0×10^6 cells in 175 cm^2 flasks. MS-5 conditioned IMDM medium was generated by growing stromal cells in IMDM for 3 days. All cells were kept at 37° C. in a humidified atmosphere at 5% CO2.
Cell-lines were seeded in 96 well plates (10,000 cells-well-), left overnight and treated with vehicle, or 1 to 1000 nM of AZD-5438 (CDK2i;), GF-109203X (PKCαi; Tocris), PF-3758309 (PAKi; Calbiochem), Trametinib (MEKi; Selleckchem), MK-2206 (AKTi; Selleckchem), KU-0063794 (mTORi; Chemdea) or TAK 715 (P38αi;). Cells were also treated with 0.01 to 10 μM of PKC-412 (PKC/Flt3i; Tocris) or 0.1 to 10 μM of TBB (CK2i; Sigma). After 72 h, cells were stained with Guava ViaCount reagent (Millipore) as indicated by the manufacturer and cell number and viability was measured using a Guava EasyCyte Plus instrument. […] After 72 h, cells were stained with Guava ViaCount reagent and cell number and viability was measured. […] Flow cytometry data were analyzed using CytoSoft (v2.5.7). IC50 values were calculated using Graphpad PRISM (v5.03). […]

primary AML cells = assay: Viability of primary AML cells (Guava ViaCount), IC50 and SC; format: cell-based, human; settings: 36 primary AML cases; threshold 50% reduction in viability at 1 μM
Method: All patients gave informed consent for the storage of their blood cells for research purposes. Each procedure was conducted in accordance with the East London and City Research Ethics Committee, as previously described (Miraki-Moud, F. et al. Blood 125, 4060-4068 (2015)). All studies comply with the rules of the Review Board and by the revised Helsinki protocol. Peripheral blood was extracted from AML patients at St Bartholomew's Hospital and mononuclear cells, isolated using Ficoll gradient followed by red cell lysis, were stored in liquid N2. Primary AML blasts were thawed following standard procedures: briefly, vials were defrosted at 37 C and exposed to 500 μg of DNAse (Sigma) for 5 minutes. […] Cell number and viability were determined by trypan blue staining using a Vi-CELL XR cell viability analyser (Beckman Coulter).
Cell-lines were seeded in 96 well plates (10,000 cells-well-), left overnight and treated with vehicle, or 1 to 1000 nM of AZD-5438 (CDK2i;), GF-109203X (PKCαi; Tocris), PF-3758309 (PAKi; Calbiochem), Trametinib (MEKi; Selleckchem), MK-2206 (AKTi; Selleckchem), KU-0063794 (mTORi; Chemdea) or TAK 715 (P38αi;). […] After 72 h, cells were stained with Guava ViaCount reagent (Millipore) as indicated by the manufacturer and cell number and viability was measured using a Guava EasyCyte Plus instrument. […] Flow cytometry data were analyzed using CytoSoft (v2.5.7). […]

CDK2 = CDK2 (Homo sapiens, UniProt P24941); settings: off-target of the PKCα inhibitor; cited from earlier work
tyrosine kinases = assay: K-score (Kinase Activity Ranking) of cells after pervanadate treatment, LC-MS/MS phosphoproteomics; format: cell-based; settings: 1 mM sodium pervanadate, 30 min; lysates mixed with untreated lysates
Method: Technical replicates were averaged and peak areas for each phosphopeptide ion were then normalized to the sum of peptide intensities for each sample. […] Kinase Activity Ranking (KAR) was calculated for kinase K using the equation below (where m=the number of phosphorylation sites in the dataset matched to kinase K; α=the normalized intensity of the phosphorylation site i; l=the total number of phosphorylation sites in the dataset regardless of any kinase-substrate association; β=the normalized intensity of the phosphorylation site j; t=the total number of known target phosphorylation sites in the PhosphoSitePlus database for kinase K). […]
P31/Fuj cells were exposed to 1 mM sodium pervanadate or left untreated during 30 min (Sodium pervanadate was prepared by mixing 30% H2O2 and 100 mM Na3VO4 pH 8.0 at 1:100 ratio during 15 min). […] After homogenization and protein quantification, treated and untreated cell lysates were mixed to a final protein concentration of 1.0 μg·μL^−1. […]
We first investigated the reproducibility and quantitative nature of Kinase Activity Ranking (KAR, which produces K-scores) as a measure of net kinase activity. […] To test the reproducibility of the analysis, we performed this experiment on three independent occasions and each was analyzed in analytical triplicate. […]

Row | Molecule | Ranking of the kinase inhibitors based on their SCs (sensitivity coefficients) [1] | Number of cases sensitive to this inhibitor only (primary AML cells) | also measured
1 | Cc1ncc(-c2ccnc(Nc3ccc(S(C)(=O)=O)cc3)n2)n1C(C)C [CDK2i, AZD5438] | ranked the highest |  | 
2 | O=C(O)c1ccc2c(c1)nc(Nc1cccc(Cl)c1)c1ccncc12 [CK2i, CX4945] |  | Five | 
3 | CC(=O)Nc1cccc(-n2c(=O)n(C3CC3)c(=O)c3c(Nc4ccc(I)cc4F)n(C)c(=O)c(C)c32)c1 [MEK1i, GSK1120212] |  | three | 
4 | Cc1nc(Nc2[nH]nc3c2CN(C(=O)N[C@H](CN(C)C)c2ccccc2)C3(C)C)c2sccc2n1 [PAKi, PF03758309] | ranked the highest |  | 
5 | CN(C)CCCn1cc(C2=C(c3c[nH]c4ccccc34)C(=O)NC2=O)c2ccccc21 [PKCαi, GF109203X] |  |  | Inhibition of CDK2 (CDK2): high potency
6 | sodium pervanadate [pV] |  |  | Change of the K-Score of tyrosine kinases (tyrosine kinases): increase
